Reference: publication PMC12396409, “Screening and hit evaluation of a microbial metabolite library against the pathogenic Plasmodium falciparum and Toxoplasma gondii parasites” (International Journal for Parasitology: Drugs and Drug …, 2025)
Like-named read-outs stand apart in the source and are kept apart here.

Experiments:
[1] = tested on: P. falciparum 3D7 parasites; test: P. falciparum growth inhibition assay, 1-cycle (72 h treatment), SYBR DNA staining (library screen at 2 μg/mL and dose-response); assay type: cell-based, Plasmodium falciparum; details: for activity at 2 µg/mL: Plasmodium falciparum, 3D7, 72 h
[2] = tested on: P. falciparum 3D7 parasites; test: P. falciparum growth inhibition assay, 2-cycle (120 h treatment), delayed-death screen and dose-response; assay type: cell-based, Plasmodium falciparum; details: for activity at 2 µg/mL: Plasmodium falciparum, 3D7, 120 h
[3] = tested on: T. gondii RH strain (RH-Tub-eYFP) tachyzoites; test: microbe, parasite or virus in culture; assay type: cell-based, Toxoplasma gondii; details: 72 h; for percent parasite growth at 2 µg/mL: Toxoplasma gondii
[4] = P. falciparum 3D7, 72 h, library screen at 2 μg/mL, % growth, replicate 1
[5] = P. falciparum 3D7, 72 h, library screen at 2 μg/mL, % growth, replicate 2
[6] = P. falciparum 3D7, 120 h, library screen at 2 μg/mL, % growth, replicate 1
[7] = P. falciparum 3D7, 120 h, library screen at 2 μg/mL, % growth, replicate 2
[8] = T. gondii RH, library screen at 2 μg/mL, % growth, replicate 1
[9] = T. gondii RH, library screen at 2 μg/mL, % growth, replicate 2
[10] = P. falciparum, 72 h, parasite screen 2 μg/mL, % growth, replicate 1
[11] = P. falciparum, 72 h, parasite screen 2 μg/mL, % growth, replicate 2
[12] = P. falciparum, 120 h, parasite screen 2 μg/mL, % growth, replicate 1
[13] = P. falciparum, 120 h, parasite screen 2 μg/mL, % growth, replicate 2
[14] = T. gondii, parasite screen 2 μg/mL, % growth, replicate 1
[15] = T. gondii, parasite screen 2 μg/mL, % growth, replicate 2

**Q.** Which Pf_72h_%Growth_Rep1 [1, 4] does the source give for `CC1OC(=O)C2CC3CCCCC3C(C=CC3CCCC(C)N3C)C12` (stereo not drawn) [BIA-H1744] here?
**A.** Its Pf_72h_%Growth_Rep1 is 66.16%.

**Q.** What about the Pf_72h_%Growth_Rep2 [1, 5] of the same molecule?
**A.** Its Pf_72h_%Growth_Rep2 is 101.99%.

**Q.** What about the Pf_120h_%Growth_Rep1 [2, 6] of the same molecule?
**A.** The Pf_120h_%Growth_Rep1 was 64.50%.

**Q.** What about the Pf_120h_%Growth_Rep2 [2, 7] of the same molecule?
**A.** The Pf_120h_%Growth_Rep2 was 86.77%.

**Q.** And the Tg_72h_%Growth_Rep1 [3, 8]?
**A.** Its Tg_72h_%Growth_Rep1 is 122.85%.

**Q.** What about the Tg_72h_%Growth_Rep2 [3, 9] of the same molecule?
**A.** Its Tg_72h_%Growth_Rep2 is 95.17%.

**Q.** How did the Pf_72h_%Growth_Rep1 [1, 10] turn out when `COC(=O)C1=CO[C@@H](C)[C@@H]2CN3CCc4c([nH]c5cc(OC)c(OC)cc45)[C@H]3C[C@H]12` [Reserpiline] was run?
**A.** The Pf_72h_%Growth_Rep1 was 29.90%.

**Q.** What about the Pf_72h_%Growth_Rep2 [1, 11] of the same molecule?
**A.** Its Pf_72h_%Growth_Rep2 is 27.58%.

**Q.** And the Pf_120h_%Growth_Rep1 [2, 12]?
**A.** Its Pf_120h_%Growth_Rep1 is 31.58%.

**Q.** What about the Pf_120h_%Growth_Rep2 [2, 13] of the same molecule?
**A.** The Pf_120h_%Growth_Rep2 was 13.59%.

**Q.** What about the Tg_72h_%Growth_Rep1 [3, 14] of the same molecule?
**A.** The Tg_72h_%Growth_Rep1 was 145.39%.

**Q.** And the Tg_72h_%Growth_Rep2 [3, 15]?
**A.** Its Tg_72h_%Growth_Rep2 is 95.76%.

**Q.** For `CCCCCCCCCCCCCCCC(=O)NC1CCOC1=O` (stereo not drawn) [BIA-H1500], which Pf_72h_%Growth_Rep1 [1, 4] is on record?
**A.** Its Pf_72h_%Growth_Rep1 is 91.73%.

**Q.** And the Pf_72h_%Growth_Rep2 [1, 5]?
**A.** The Pf_72h_%Growth_Rep2 was 78.97%.

**Q.** And the Pf_120h_%Growth_Rep1 [2, 6]?
**A.** Its Pf_120h_%Growth_Rep1 is 95.21%.

**Q.** And the Pf_120h_%Growth_Rep2 [2, 7]?
**A.** Its Pf_120h_%Growth_Rep2 is 120.58%.

**Q.** And the Tg_72h_%Growth_Rep1 [3, 8]?
**A.** Its Tg_72h_%Growth_Rep1 is 108.53%.

**Q.** What about the Tg_72h_%Growth_Rep2 [3, 9] of the same molecule?
**A.** The Tg_72h_%Growth_Rep2 was 91.16%.

**Q.** For `C[C@@H]1C[C@H]2CC[C@H](O2)[C@H](C)C(=O)O[C@@H](C)C[C@@H]2CC[C@@H](O2)[C@@H](C)C(=O)O[C@H](C)C[C@H]2CC[C@@H](O2)[C@H](C)C(=O)O[C@@H](C)C[C@@H]2CC[C@@H](O2)[C@@H](C)C(=O)O1` [BIA-N1270], which Pf_72h_%Growth_Rep1 ([1]; P. falciparum 3D7, 72 h, parasite screen at 2 μg/mL, % growth, replicate 1) is on record?
**A.** The Pf_72h_%Growth_Rep1 was 6.60%.

**Q.** What about the Pf_72h_%Growth_Rep2 ([1]; P. falciparum 3D7, 72 h, parasite screen at 2 μg/mL, % growth, replicate 2) of the same molecule?
**A.** Its Pf_72h_%Growth_Rep2 is 4.15%.

**Q.** And the Pf_120h_%Growth_Rep1 ([2]; P. falciparum 3D7, 120 h, parasite screen at 2 μg/mL, % growth, replicate 1)?
**A.** Its Pf_120h_%Growth_Rep1 is 46.69%.

**Q.** What about the Pf_120h_%Growth_Rep2 ([2]; P. falciparum 3D7, 120 h, parasite screen at 2 μg/mL, % growth, replicate 2) of the same molecule?
**A.** Its Pf_120h_%Growth_Rep2 is 11.45%.

**Q.** And the Tg_72h_%Growth_Rep1 ([3]; T. gondii, parasite screen at 2 μg/mL, % growth, replicate 1)?
**A.** The Tg_72h_%Growth_Rep1 was 4.95%.

**Q.** What about the Tg_72h_%Growth_Rep2 ([3]; T. gondii, parasite screen at 2 μg/mL, % growth, replicate 2) of the same molecule?
**A.** Its Tg_72h_%Growth_Rep2 is 0.97%.

**Q.** How did the Pf_72h_%Growth_Rep1 [1, 4] turn out when `C=C(C)[C@@H]1CC[C@]2(C)CC[C@]3(C)[C@H](CC[C@@H]4[C@@]5(C)CC[C@H](O)C(C)(C)[C@@H]5CC[C@]43C)[C@@H]12` [BIA-L1759] was run?
**A.** The Pf_72h_%Growth_Rep1 was 81.82%.

**Q.** What about the Pf_72h_%Growth_Rep2 [1, 5] of the same molecule?
**A.** The Pf_72h_%Growth_Rep2 was 111.85%.

**Q.** What about the Pf_120h_%Growth_Rep1 [2, 6] of the same molecule?
**A.** The Pf_120h_%Growth_Rep1 was 99.08%.

**Q.** And the Pf_120h_%Growth_Rep2 [2, 7]?
**A.** The Pf_120h_%Growth_Rep2 was 111.54%.

**Q.** What about the Tg_72h_%Growth_Rep1 [3, 8] of the same molecule?
**A.** Its Tg_72h_%Growth_Rep1 is 110.92%.

**Q.** What about the Tg_72h_%Growth_Rep2 [3, 9] of the same molecule?
**A.** Its Tg_72h_%Growth_Rep2 is 91.52%.

**Q.** With `COc1cc(O)c2c(=O)oc3c(O)c(OC)cc(C)c3c2c1` [BIA-G1559] as the molecule, how does the Pf_72h_%Growth_Rep1 [1, 4] read?
**A.** Its Pf_72h_%Growth_Rep1 is 89.69%.

**Q.** And the Pf_72h_%Growth_Rep2 [1, 5]?
**A.** Its Pf_72h_%Growth_Rep2 is 92.13%.

**Q.** What about the Pf_120h_%Growth_Rep1 [2, 6] of the same molecule?
**A.** Its Pf_120h_%Growth_Rep1 is 94.64%.

**Q.** And the Pf_120h_%Growth_Rep2 [2, 7]?
**A.** The Pf_120h_%Growth_Rep2 was 147.16%.

**Q.** And the Tg_72h_%Growth_Rep1 [3, 8]?
**A.** Its Tg_72h_%Growth_Rep1 is 136.29%.

**Q.** What about the Tg_72h_%Growth_Rep2 [3, 9] of the same molecule?
**A.** Its Tg_72h_%Growth_Rep2 is 91.52%.

**Q.** What does the source list for `COC(=O)[C@]12Oc3cc(C)c(-c4c(C)cc5c(c4O)C(=O)C4=C(O)CC[C@H](O)[C@@]4(C(=O)OC)O5)c(O)c3C(=O)C1=C(O)CC[C@@H]2O` [Rugulotrosin A]?
**A.** activity at 2 µg/mL ([1]; P. falciparum, 72 h, parasite screen 2 μg/mL, % growth, replicate 1, read-out: Pf_72h_%Growth_Rep1): 69.8%; activity at 2 µg/mL ([1]; P. falciparum, 72 h, parasite screen 2 μg/mL, % growth, replicate 2, read-out: Pf_72h_%Growth_Rep2): 106%; activity at 2 µg/mL ([2]; P. falciparum, 120 h, parasite screen 2 μg/mL, % growth, replicate 1, read-out: Pf_120h_%Growth_Rep1): 69.8%; activity at 2 µg/mL ([2]; P. falciparum, 120 h, parasite screen 2 μg/mL, % growth, replicate 2, read-out: Pf_120h_%Growth_Rep2): 107%; percent parasite growth at 2 µg/mL ([3]; T. gondii, parasite screen 2 μg/mL, % growth, replicate 1, read-out: Tg_72h_%Growth_Rep1): 118%; percent parasite growth at 2 µg/mL ([3]; T. gondii, parasite screen 2 μg/mL, % growth, replicate 2, read-out: Tg_72h_%Growth_Rep2): 86.1%

**Q.** Which Pf_72h_%Growth_Rep1 ([1]; library screen at 2 μg/mL, 72 h, % growth, replicate 1) does the source give for `CCCCCCC(C)C/C(C)=C\C(/C=C(C)/C=C/C(O)C(C)(C)c1cc(O)c([C@@H]2O[C@H](CO)C[C@H](O)[C@H]2O)c(=O)o1)CO` (stereo partly drawn) [Fusapyrone] here?
**A.** Its Pf_72h_%Growth_Rep1 is 90.44%.

**Q.** And the Pf_72h_%Growth_Rep2 ([1]; library screen at 2 μg/mL, 72 h, % growth, replicate 2)?
**A.** Its Pf_72h_%Growth_Rep2 is 35.77%.

**Q.** What about the Pf_120h_%Growth_Rep1 ([2]; library screen at 2 μg/mL, 120 h, % growth, replicate 1) of the same molecule?
**A.** The Pf_120h_%Growth_Rep1 was 92.76%.

**Q.** What about the Pf_120h_%Growth_Rep2 ([2]; library screen at 2 μg/mL, 120 h, % growth, replicate 2) of the same molecule?
**A.** Its Pf_120h_%Growth_Rep2 is 105.39%.

**Q.** And the Tg_72h_%Growth_Rep1 ([3]; library screen at 2 μg/mL, % growth, replicate 1)?
**A.** Its Tg_72h_%Growth_Rep1 is 113.82%.

**Q.** What about the Tg_72h_%Growth_Rep2 ([3]; library screen at 2 μg/mL, % growth, replicate 2) of the same molecule?
**A.** The Tg_72h_%Growth_Rep2 was 93.81%.

**Q.** How did the Pf_72h_%Growth_Rep1 [1, 10] turn out when `CO[C@H]1/C=C\C=C(/C)C(=O)Nc2cc(O)cc(c2O)[C@H](OC)[C@@H](C)C[C@H](OC)[C@H](O)[C@@H](C)/C=C(\C)[C@@H]1OC(N)=O` [TAN 420C] was run?
**A.** Its Pf_72h_%Growth_Rep1 is 3.02%.

**Q.** What about the Pf_72h_%Growth_Rep2 [1, 11] of the same molecule?
**A.** The Pf_72h_%Growth_Rep2 was -2.54%.

**Q.** What about the Pf_120h_%Growth_Rep1 [2, 12] of the same molecule?
**A.** The Pf_120h_%Growth_Rep1 was 31.69%.

**Q.** What about the Pf_120h_%Growth_Rep2 [2, 13] of the same molecule?
**A.** Its Pf_120h_%Growth_Rep2 is 5.24%.

**Q.** What about the Tg_72h_%Growth_Rep1 [3, 14] of the same molecule?
**A.** The Tg_72h_%Growth_Rep1 was 82.44%.

**Q.** And the Tg_72h_%Growth_Rep2 [3, 15]?
**A.** Its Tg_72h_%Growth_Rep2 is 97.92%.

**Q.** `C=C1C(=O)C[C@@H]2[C@H]3CC[C@@H](C(=O)O)[C@@]12CC3(C)C` [Terrecyclic Acid] was tested. Which Pf_72h_%Growth_Rep1 ([1]; P. falciparum, 72 h, screen at 2 μg/mL, replicate 1) did it give?
**A.** The Pf_72h_%Growth_Rep1 was 17.94%.

**Q.** What about the Pf_72h_%Growth_Rep2 ([1]; P. falciparum, 72 h, screen at 2 μg/mL, replicate 2) of the same molecule?
**A.** The Pf_72h_%Growth_Rep2 was 13.49%.

**Q.** And the Pf_120h_%Growth_Rep1 ([2]; P. falciparum, 120 h, screen at 2 μg/mL, replicate 1)?
**A.** The Pf_120h_%Growth_Rep1 was 35.11%.

**Q.** And the Pf_120h_%Growth_Rep2 ([2]; P. falciparum, 120 h, screen at 2 μg/mL, replicate 2)?
**A.** The Pf_120h_%Growth_Rep2 was 10.18%.

**Q.** And the Tg_72h_%Growth_Rep1 ([3]; T. gondii, screen at 2 μg/mL, replicate 1)?
**A.** Its Tg_72h_%Growth_Rep1 is 40.31%.

**Q.** What about the Tg_72h_%Growth_Rep2 ([3]; T. gondii, screen at 2 μg/mL, replicate 2) of the same molecule?
**A.** Its Tg_72h_%Growth_Rep2 is 50.53%.
